What was measured:
CXCR3-PK1 = target: T1, CXCR3-PK1 (Homo sapiens, UniProt P49682); assay: β-arrestin 2 recruitment assay (PathHunter, DiscoveRx), CXCR3-PK1 construct; assay type: cell-based; details: CXCR3-PK1
T1 construct: expressed in transfected cells; host or cells: HEK293 cells stably expressing beta-gal enzyme acceptor (PathHunter, DiscoveRx), transiently transfected
T1 sequence (P49682 1-368): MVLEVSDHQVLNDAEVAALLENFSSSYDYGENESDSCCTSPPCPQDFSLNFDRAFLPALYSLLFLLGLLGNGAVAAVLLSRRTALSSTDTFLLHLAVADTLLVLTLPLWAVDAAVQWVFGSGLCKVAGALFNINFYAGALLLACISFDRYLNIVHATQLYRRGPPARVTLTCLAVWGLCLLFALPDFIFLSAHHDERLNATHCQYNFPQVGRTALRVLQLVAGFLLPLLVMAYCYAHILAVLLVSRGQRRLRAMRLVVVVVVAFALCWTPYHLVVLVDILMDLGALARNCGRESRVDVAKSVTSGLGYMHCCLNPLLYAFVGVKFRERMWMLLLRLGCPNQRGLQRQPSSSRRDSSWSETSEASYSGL
In short: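 HEK293 cells stably expressing β-gal enzyme acceptor, transiently transfected with PK1-tagged wild-type CXCR3, seeded overnight at 37°C. Test compounds or CXCL11 at various concentrations in PBS pH 7.4 with 0.20% BSA, 4 h; detection mix 60 min at room temperature. β-gal fragment complementation read by chemiluminescence.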

CXCR3-PK2 = target: T2, CXCR3-PK2 (Homo sapiens, UniProt P49682); assay: β-arrestin 2 recruitment assay (PathHunter, DiscoveRx), CXCR3-PK2 construct; assay type: cell-based; details: CXCR3-PK2
T2 construct: expressed in transfected cells
T2 sequence (P49682 1-368): T1 sequence (P49682 1-368)
Experimental: β-arrestin 2 recruitment assay: The measurement of β-arrestin recruitment was performed utilizing the PathHunter assay purchased from DiscoveRx (DiscoveRx, Birmingham, U.K.) according to the manufacturer's protocol. HEK293 cells stably expressing β-gal enzyme acceptor were transiently transfected with the ProLink (PK1) tagged wildtype CXCR3 receptor using the TransIT-293 transfection reagent from Mirus (purchased from MoBiTec, Goettingen, Germany). The assay was carried out in 384-well plates containing 2000 cells in 20 µL. After incubation at 37°C (5% CO2, 95% relative humidity) overnight, various concentrations of test compounds or CXCL11 (prepared in PBS, pH 7.4, containing 0.20% BSA) were added and the incubation continued for 4 h. Detection mix was then added and incubated for further 60 min at room temperature. Chemiluminescence was determined with a microplate reader Clariostar (BMG labtech, Ortenberg, Germany).
The ability of the novel ligands according to the present invention to induce CXCR3-mediated β-arrestin 2 recruitment was investigated in the assay system PathHunter (DiscoveRx), which detects the recruitment of β-amestin 2 to the activated receptor using β-galactosidase (β-gal) enzyme fragment complementation. The inventors used two different ProLink tags, ProLink1 (PK1) and ProLink2 (PK2), of which PK2 has higher affinity for the enzyme acceptor to detect weak protein-protein interactions. The CXCR3-PK2 construct is readily able to detect the differences in the propensity of CXCL11 and CXCL10 to induce β-arrestin 2 recruitment at CXCR3. […] Table 3. Ability of the 46/VUF10661 based positive allosteric modulators to activate the CXCR3 as measured in the β-arrestin 2 recruitment assay (PathHunter, DiscoveRx).[a]
To investigate the efficacy of identified partial agonists in the assay format, the inventors used the CXCR3-PK2 construct, which is characterized by higher sensitivity to detect β-arrestin 2 recruitment. The compounds which appeared as weak partial agonists under CXCR3-PK1 conditions appeared as strong partial agonists under CXCR3-PK2 conditions with the efficacy increased up to 80% (Table 4). FAUC1036 reached the efficacy of 66%. […] Table 4. Ability of the compound 5 based positive allosteric modulators to activate the CXCR3 as measured in the β-arrestin 2 recruitment assay (PathHunter, DiscoveRx).[a]

CXCR3 = target: T3, CXCR3 (Homo sapiens, UniProt P49682); assay: [35S]GTPγS incorporation assay; assay type: biochemical; details: membrane preparations of HEK293T stably expressing CXCR3
T3 construct: expressed in transfected cells; host or cells: HEK293 / HEK293T cells, stably transfected; membrane preparations
T3 sequence (P49682 1-368): T1 sequence (P49682 1-368)
In short: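 Membranes from HEK293 cells stably expressing human CXCR3 (30 µg/mL protein) preincubated 30 min at 37 °C with test compound, CXCL11 and 1 µM GDP in HEPES/MgCl2/NaCl/saponin buffer, pH 7.4. Then 0.10 nM [35S]GTPγS added for 30 min at 37 °C; filter-bound radioactivity counted, triplicates, 3–4 experiments.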

activated T-cells = details: cited from earlier work

Row | Compound | Emax (CXCR3-PK1; % of CXCL11 mediated effect, read-out: CXCR3-PK1 efficacy (%) (converted)) | CXCR3-PK1 pEC50 ± SEM (CXCR3-PK1; HEK293-T cells, PathHunter, two to three experiments in triplicate) | Emax (CXCR3-PK2; % of CXCL11 mediated effect, read-out: CXCR3-PK2 efficacy (%) (converted)) | CXCR3-PK2 pEC50 ± SEM (CXCR3-PK2; HEK293-T cells, PathHunter) | Emax (CXCR3; % of CXCL11 mediated effect, read-out: CXCR3 Efficacy (%) ± SEM) | CXCR3 pEC50 ± SEM (CXCR3; mean of three experiments in triplicate) | influence on CXCL11 induced migration in activated T-cells (activated T-cells)
1 | NCCCC[C@@H](NC(=O)[C@@H]1Cc2ccccc2CN1C(=O)CCC(=O)c1ccccc1)C(=O)NCC(c1ccccc1)c1ccccc1.O=C(O)C(F)(F)F [Compound 47, (R)-6-((2,2-diphenylethyl)amino)-6-oxo-5-((S)-2-(4-oxo-4-phenylbutanoyl)-1,2,3,4-tetrahydroisoquinoline-3-carboxamido)hexan-1-aminium 2,2,2-trifluoroacetate] | 108% | 5.96±0.08 | 198% | 6.12±0.11 | 85 ± 5% | 5.94±0.09 | –
2 | NC(N)=NCCC[C@H](NC(=O)[C@@H]1Cc2ccccc2CN1C(=O)CCC(=O)c1ccccc1)C(=O)NCC1CCCCC1 [PS372424] | – | – | – | – | – | – | found to antagonize CXCL11 induced migration

Reference: patent EP3156398A1, “AGONISTS OF THE CHEMOKINE RECEPTOR CXCR3” (Friedrich-Alexander-Universität Erlangen-Nürnberg, priority 2015, dated 2017)
